This passage reports IC50 and Km results from publication PMC4696824 (PLoS ONE, 2015).

Data set [1] concerns the target T1, cathepsin B-like cysteine peptidase (DCcathB) (Diaphorina citri, UniProt A0A0U4DX43).
T1 construct: mature peptide residues 70 to 374
T1 sequence (A0A0U4DX43 70-374): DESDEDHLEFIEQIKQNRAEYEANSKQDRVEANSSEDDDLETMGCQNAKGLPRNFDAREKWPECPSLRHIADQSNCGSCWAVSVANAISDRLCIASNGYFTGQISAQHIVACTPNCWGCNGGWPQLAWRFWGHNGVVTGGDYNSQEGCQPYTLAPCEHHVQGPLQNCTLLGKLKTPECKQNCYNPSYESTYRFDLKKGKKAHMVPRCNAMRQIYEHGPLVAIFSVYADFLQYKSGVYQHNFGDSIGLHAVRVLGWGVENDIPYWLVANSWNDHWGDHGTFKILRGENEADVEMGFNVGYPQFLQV
Description: fluorogenic inhibition assay, Z-F-R-AMC substrate, purified recombinant enzyme. The data set is classed as biochemical.

Substrate in data set [2]: Cc1cc(=O)oc2cc(NC(=O)[C@H](CCCNC(=N)N)NC(=O)[C@H](CCCNC(=N)N)NC(=O)OCc3ccccc3)ccc12
Description: fluorogenic substrate hydrolysis, Km, purified recombinant enzyme. The data set is classed as biochemical, Diaphorina citri.

Substrate in data set [3]: Cc1cc(=O)oc2cc(NC(=O)[C@H](CCCNC(=N)N)NC(=O)[C@H](Cc3ccccc3)NC(=O)OCc3ccccc3)ccc12
Described as above. The data set is classed as biochemical, Diaphorina citri.

For `CCCNC(=O)[C@H]1O[C@@H]1C(=O)N[C@H](C(=O)N1CCC[C@H]1C(=O)O)[C@@H](C)CC` [CA-074, N-(l-3-trans-propylcarbamoyloxirane-2-carbonyl)-L-isoleucyl-L-proline], in data set [1], the IC50 was 0.095 nM.
On the same count and under the same terms, the same measure for `CC(C)C[C@H](NC(=O)[C@H]1O[C@@H]1C(=O)O)C(=O)NCCCCN=C(N)N` [E-64, L-trans-Epoxysuccinyl-leucylamido(4-guanidino)butane]: 14 nM.

B1: cathepsin B-like cysteine peptidase (DCcathB) (Diaphorina citri) (protein)
chain: T1 sequence (A0A0U4DX43 70-374)
notes: mature peptide residues 70 to 374
As for B1, the figures for the Km in data set [2] and in data set [3] were 6.13 µM and 23.5 µM, respectively.
